Results reported in patent US20070093520A1, “Method of treatment of diarrhea-predominant irritable bowel syndrome in a subject” (priority 2005, published 2007).

System: diarrhea-predominant IBS subjects
Test: 3007 Study: open-label 52-week safety study, adverse events and withdrawals
Conditions: C/C group

## Cc1nccn1C[C@H]1CCc2c(c3cccc4c3n2CCC4)C1=O [cilansetron, (R)-(−)-4,5,6,8,9,10-hexahydro-10-[(2-methyl-1H-imidazol-1-yl)methyl]-11H-pyrido-[3,2,1-jk]-carbazol-11-one]
  TEAE: Labyrinthitis NOS: 2 (<1%) n (%)
  TEAE: Lacrimal Disorders: 2 (<1%) n (%)
  TEAE: Lactose Intolerance: 0 n (%)
  TEAE: Laryngeal and Adjacent Sites Disorders NEC (Excl Infections and Neoplasms): 2 (<1%) n (%)
  TEAE: Laryngitis NOS: 2 (<1%) n (%)
  TEAE: Leiomyoma NOS: 1 (<1%) n (%)
  TEAE: Lethargy: 0 n (%)
  TEAE: Leukopenia NOS: 2 (<1%) n (%)
  TEAE: Leukopenias NEC: 2 (<1%) n (%)
  TEAE: Libido Decreased: 0 n (%)
  TEAE: Lid, Lash and Lacrimal Structural Disorders (Excl Congenital): 1 (<1%) n (%)
  TEAE: Lipid Metabolism Disorder NOS: 1 (<1%) n (%)
  TEAE: Lipid Metabolism and Deposit Disorders NEC: 1 (<1%) n (%)
  TEAE: Lipoma NOS: 2 (<1%) n (%)
  TEAE: Lower Respiratory Tract Signs and Symptoms: 1 (<1%) n (%)
  TEAE: Lymphadenopathy: 1 (<1%) n (%)
  TEAE: Lymphangitis and Lymphatic Disorders NEC: 1 (<1%) n (%)
  TEAE: Meniere's Disease: 1 (<1%) n (%)
  TEAE: Menorrhagia*: 1 (<1%) n (%)
  TEAE: Menstruation Irregular*: 0 n (%)
  TEAE: Menstruation and Uterine Bleeding NEC*: 1 (<1%) n (%)
  TEAE: Menstruation with Decreased Bleeding*: 1 (<1%) n (%)
  TEAE: Menstruation with Increased Bleeding*: 2 (1%) n (%)
  TEAE: Mental Disorders NEC: 0 n (%)
  TEAE: Mental Status Changes: 0 n (%)
  TEAE: Metabolism and Nutrition Disorders: 11 (4%) n (%)
  TEAE: Middle Ear Disorders NEC: 1 (<1%) n (%)
  TEAE: Motion Sickness: 0 n (%)
  TEAE: Myocardial Infarction: 1 (<1%) n (%)
  TEAE: Nail and Nail Bed Conditions (Excl Infections and Infestations): 0 n (%)
  TEAE: Nasal Congestion and Inflammations: 7 (3%) n (%)
  TEAE: Neoplasms Benign Site Unspecified NEC: 1 (<1%) n (%)
  TEAE: Neoplasms Benign, Malignant and Unspecified (Incl Cysts and Polyps): 9 (4%) n (%)
  TEAE: Normal Pregnancy, Labour and Delivery*: 1 (<1%) n (%)
  TEAE: Ocular Disorders NEC: 0 n (%)
  TEAE: Ocular Nerve and Muscle Disorders: 0 n (%)
  TEAE: Oedema NEC: 4 (2%) n (%)
  TEAE: Oedema NOS: 0 n (%)
  TEAE: Oedema Peripheral: 4 (2%) n (%)
  TEAE: Ovarian Cancer NOS*: 1 (<1%) n (%)
  TEAE: Ovarian Cystadenofibroma*: 0 n (%)
  TEAE: Ovarian Neoplasms Benign*: 0 n (%)
  TEAE: Ovarian Neoplasms Malignant (Excl Germ Cell)*: 1 (<1%) n (%)
  TEAE: Pain NOS: 2 (<1%) n (%)
  TEAE: Pain and Discomfort NEC: 5 (2%) n (%)
  TEAE: Palpitations: 2 (<1%) n (%)
  TEAE: Panic Attack: 0 n (%)
  TEAE: Panic Symptoms: 0 n (%)
  TEAE: Papulosquamous Conditions: 0 n (%)
  TEAE: Paranasal Sinus Disorders (Excl Infections and Neoplasms): 6 (2%) n (%)
  TEAE: Paranasal Sinus Hypersecretion: 1 (<1%) n (%)
  TEAE: Partial Vision Loss: 0 n (%)
  TEAE: Pelvic Pain NOS: 0 n (%)
  TEAE: Penile Disorders NEC (Excl Erection and Ejaculation)*: 0 n (%)
  TEAE: Penile Haemorrhage*: 0 n (%)
  TEAE: Perception Disturbances: 0 n (%)
  TEAE: Peripheral Embolism NOS: 0 n (%)
  TEAE: Peripheral Embolism and Thrombosis: 0 n (%)
  TEAE: Peripheral Vascular Disorders NEC: 2 (<1%) n (%)
  TEAE: Pharyngitis: 3 (1%) n (%)
  TEAE: Polydipsia: 0 n (%)
  TEAE: Polyuria: 0 n (%)
  TEAE: Posterior Capsule Opacification: 0 n (%)
  TEAE: Postnasal Drip: 0 n (%)
  TEAE: Pregnancy NOS*: 1 (<1%) n (%)
  TEAE: Pregnancy, Puerperium and Perinatal Conditions: 1 (<1%) n (%)
  TEAE: Premenopause*: 0 n (%)
  TEAE: Premenstrual Syndrome*: 1 (<1%) n (%)
  TEAE: Productive Cough: 1 (<1%) n (%)
  TEAE: Prostate and Seminal Vesicles Infections and Inflammations*: 2 (2%) n (%)
  TEAE: Prostatitis*: 2 (2%) n (%)
  TEAE: Proteinuria: 1 (<1%) n (%)
  TEAE: Pruritus NEC: 3 (1%) n (%)
  TEAE: Pruritus NOS: 3 (1%) n (%)
  TEAE: Psoriasis: 0 n (%)
  TEAE: Psychiatric Disorders: 15 (6%) n (%)
  TEAE: Psychotic Disorder NEC: 0 n (%)
  TEAE: Psychotic Disorder NOS: 0 n (%)
  TEAE: Purine Metabolism Disorders NEC: 2 (<1%) n (%)
  TEAE: Pyrexia: 2 (<1%) n (%)
  TEAE: Rash Macular: 0 n (%)
  TEAE: Rash NOS: 4 (2%) n (%)
  TEAE: Rashes, Eruptions and Exanthems NEC: 4 (2%) n (%)
  TEAE: Rate and Rhythm Disorders NEC: 2 (<1%) n (%)
  TEAE: Refractive Errors NOS: 1 (<1%) n (%)
  TEAE: Refractive and Accommodative Disorders: 1 (<1%) n (%)
  TEAE: Renal Lithiasis: 3 (1%) n (%)
  TEAE: Renal and Urinary Disorders: 13 (5%) n (%)
  TEAE: Reproductive System and Breast Disorders: 12 (5%) n (%)
  TEAE: Reproductive Tract Signs and Symptoms NEC: 1 (<1%) n (%)
  TEAE: Respiratory Tract Congestion: 1 (<1%) n (%)
  TEAE: Respiratory Tract Disorders NEC: 1 (<1%) n (%)
  TEAE: Respiratory, Thoracic and Mediastinal Disorders: 28 (11%) n (%)
  TEAE: Retinal Detachment: 1 (<1%) n (%)
  TEAE: Retinal Structural Change, Deposit and Degeneration: 1 (<1%) n (%)
  TEAE: Rhinitis Allergic NOS: 3 (1%) n (%)
  TEAE: Rhinitis NOS: 3 (1%) n (%)
  TEAE: Rhinitis Seasonal: 1 (<1%) n (%)
  TEAE: Rosacea: 1 (<1%) n (%)
  TEAE: Rosaceas: 1 (<1%) n (%)
  TEAE: Seasonal Allergy: 4 (2%) n (%)
  TEAE: Sexual Desire Disorders: 0 n (%)
  TEAE: Sick Sinus Syndrome: 0 n (%)
  TEAE: Sinus Arrhythmia: 0 n (%)
  TEAE: Sinus Congestion: 5 (2%) n (%)
  TEAE: Skin Disorder NOS: 0 n (%)
  TEAE: Skin Injuries and Mechanical Dermatoses: 1 (<1%) n (%)
  TEAE: Skin Lesion NOS: 1 (<1%) n (%)
  TEAE: Skin Neoplasms Benign: 0 n (%)
  TEAE: Skin Neoplasms Malignant and Unspecified (Excl Melanoma): 2 (<1%) n (%)
  TEAE: Skin Ulcer: 0 n (%)
  TEAE: Skin and Subcutaneous Tissue Disorders: 14 (5%) n (%)
  TEAE: Skin and Subcutaneous Tissue Ulcerations: 0 n (%)
  TEAE: Social Circumstances: 0 n (%)
  TEAE: Soft Tissue Neoplasms Benign NEC: 3 (1%) n (%)
  TEAE: Strabismus: 0 n (%)
  TEAE: Stress Incontinence: 1 (<1%) n (%)
  TEAE: Stress Symptoms: 0 n (%)
  TEAE: Structural and Other Bile Duct Disorders: 0 n (%)
  TEAE: Sugar Intolerance (Excl Glucose Intolerance): 0 n (%)
  TEAE: Suicidal Ideation: 0 n (%)
  TEAE: Suicidal and Self-Injurious Behaviour: 0 n (%)
  TEAE: Supraventricular Arrhythmias: 1 (<1%) n (%)
  TEAE: Supraventricular Tachycardia: 0 n (%)
  TEAE: Surgical and Medical Procedures: 1 (<1%) n (%)
  TEAE: Sweating Increased: 0 n (%)
  TEAE: Swelling Face: 0 n (%)
  TEAE: Tachycardia NOS: 1 (<1%) n (%)
  TEAE: Tenderness NOS: 0 n (%)
  TEAE: Thrombocytopenia: 0 n (%)
  TEAE: Thrombocytopenias: 0 n (%)
  TEAE: Thrombophlebitis Superficial: 0 n (%)
  TEAE: Thyroid Disorders NEC: 1 (<1%) n (%)
  TEAE: Thyroid Hypofunction Disorders: 1 (<1%) n (%)
  TEAE: Thyroid Neoplasms: 0 n (%)
  TEAE: Thyroid Nodule: 0 n (%)
  TEAE: Tinnitus: 1 (<1%) n (%)
  TEAE: Total Fluid Volume Decreased: 1 (<1%) n (%)
  TEAE: Tympanic Membrane Disorder NOS: 0 n (%)
  TEAE: Tympanic Membrane Disorders (Excl Infections): 0 n (%)
  TEAE: Upper Respiratory Tract Signs and Symptoms: 3 (1%) n (%)
  TEAE: Urinary Abnormalities: 5 (2%) n (%)
  TEAE: Urinary Frequency: 2 (<1%) n (%)
  TEAE: Urinary Incontinence: 1 (<1%) n (%)
  TEAE: Urinary Retention: 1 (<1%) n (%)
  TEAE: Urinary Tract Lithiasis (Excl Renal): 1 (<1%) n (%)
  TEAE: Urinary Tract Signs and Symptoms NEC: 0 n (%)
  TEAE: Urine Abnormal NOS: 1 (<1%) n (%)
  TEAE: Urticaria NOS: 1 (<1%) n (%)
  TEAE: Urticarias: 1 (<1%) n (%)
  TEAE: Uterine Disorders NEC*: 2 (1%) n (%)
  TEAE: Uterine Fibroids*: 1 (<1%) n (%)
  TEAE: Uterine Neoplasms Benign*: 1 (<1%) n (%)
  TEAE: Uterine Neoplasms*: 2 (1%) n (%)
  TEAE: Uterine Polyp NOS*: 2 (1%) n (%)
  TEAE: Vaginal Cyst*: 1 (<1%) n (%)
  TEAE: Vaginal Lesion*: 1 (<1%) n (%)
  TEAE: Varicose Vein Ruptured: 2 (<1%) n (%)
  TEAE: Varicose Veins Non-Site Specific: 2 (<1%) n (%)
  TEAE: Vascular Disorders: 13 (5%) n (%)
  TEAE: Vascular Hypertensive Disorders NEC: 8 (3%) n (%)
  TEAE: Vascular Hypotensive Disorders: 0 n (%)
  TEAE: Ventricular Arrhythmias and Cardiac Arrest: 1 (<1%) n (%)
  TEAE: Ventricular Extrasystoles: 1 (<1%) n (%)
  TEAE: Vertigo: 1 (<1%) n (%)
  TEAE: Visual Acuity Reduced: 0 n (%)
  TEAE: Vitreous Disorder NOS: 0 n (%)
  TEAE: Vulvovaginal Cysts and Neoplasms*: 1 (<1%) n (%)
  TEAE: Vulvovaginal Dryness*: 0 n (%)
